Laboratory results published in patent US4774184A, “Culture and process for producing antibiotic LL-D42067alpha” (American Cyanamid Company, priority 1985, dated 1988).
Values after ≈ are worked out from the molar mass of the structure shown. Where two headings read alike, the source gives them in different places.

Assays:
Type in all cases: cell-based
gram-positive bacteria = assay: in vitro antimicrobial spectrum, summary in words; conditions: summary of Table VI
Experimental: (§1) The in vitro antimicrobial spectrum of LL-D42067α was determined by the agar plate dilution method with Mueller-Hinton agar and an inoculum of each test organism of approximately 10^4 colony forming units delivered by the Steers replicating device. The minimal inhibitory concentration (MIC) in mcg/ml was defined as the lowest concentration of LL-D42067α that inhibited visible growth after 18 hours incubation at 35° C.

yeasts = assay: in vitro antimicrobial spectrum, summary in words; conditions: summary of Table VI
Experimental: as §1

Streptococcus faecalis = assay: in vitro antimicrobial spectrum, agar plate dilution MIC; conditions: Enterococcus faecalis, ATCC29212; strain ATCC 29212; Mueller-Hinton agar, 18 hours, 35° C.; read-out: minimal inhibitory concentration (MIC)
Experimental: as §1

Staphylococcus aureus = assay: as above; conditions: Mueller-Hinton agar, 18 hours, 35° C.; for MIC: Staphylococcus aureus, read-out: minimal inhibitory concentration (MIC)
Experimental: as §1

Klebsiella pneumoniae = assay: as above; conditions: strain AD, Mueller-Hinton agar, 18 hours, 35° C., read-out: minimal inhibitory concentration (MIC)
Experimental: as §1

Streptococcus mutans = assay: as above; conditions: 18 hours, 35° C., read-out: minimal inhibitory concentration (MIC)
Experimental: as §1

Proteus morganii = assay: as above; conditions: Morganella morganii; strain K-79-25; Mueller-Hinton agar, 18 hours, 35° C.; read-out: minimal inhibitory concentration (MIC)
Experimental: as §1

Bacillus cereus = assay: as above; conditions: strain LL #4, Mueller-Hinton agar, 18 hours, 35° C., read-out: minimal inhibitory concentration (MIC)
Experimental: as §1

Streptococcus sanguis = assay: as above; conditions: strain G9B (a), Mueller-Hinton agar, 18 hours, 35° C., read-out: minimal inhibitory concentration (MIC)
Experimental: as §1

Escherichia coli = assay: as above; conditions: 18 hours, 35° C., read-out: minimal inhibitory concentration (MIC)
Experimental: as §1

[1] = test system: Streptococcus (enterococcus sp); assay: as above; conditions: Mueller-Hinton agar, 18 hours, 35° C.
Experimental: as §1

[2] = test system: Acinetobacter calcoaceticus; assay: as above; conditions: strain Stfd-79-17, Mueller-Hinton agar, 18 hours, 35° C., read-out: minimal inhibitory concentration (MIC)
Experimental: as §1

[3] = test system: Staphylococcus epidermidis; assay: as above; conditions: 18 hours, 35° C., read-out: minimal inhibitory concentration (MIC)
Experimental: as §1

Saccharomyces cerevisiae = assay: as above; conditions: strain Y 15, Mueller-Hinton agar, 18 hours, 35° C., read-out: minimal inhibitory concentration (MIC)
Experimental: as §1

Bacillus subtilis = assay: as above; conditions: ATCC6633, strain ATCC 6633, Mueller-Hinton agar, 18 hours, 35° C., read-out: minimal inhibitory concentration (MIC)
Experimental: as §1

Candida albicans = assay: as above; conditions: strain CA 300, Mueller-Hinton agar, 18 hours, 35° C., read-out: minimal inhibitory concentration (MIC)
Experimental: as §1

Micrococcus luteus = assay: as above; conditions: strain PC 1001, Mueller-Hinton agar, 18 hours, 35° C., read-out: minimal inhibitory concentration (MIC)
Experimental: as §1

Compound: COc1c2c(c(O)c3c(=O)c4c(oc13)C(O)CCC4O)-c1c3c(c4cc(C)n(C)c(=O)c4c1O)OCOC3C2 (stereo not drawn) [LL-D42067α]
- antimicrobial activity versus gram-positive bacteria (gram-positive bacteria): active
- antimicrobial activity against yeasts (yeasts): moderately active
- MIC (Streptococcus faecalis): ≤ 0.06 µg/mL
- MIC (Staphylococcus aureus; ATCC25923, strain ATCC 25923): ≤ 0.06 µg/mL
- MIC (Staphylococcus aureus; strain Smith): ≤ 0.06 µg/mL
- minimal inhibitory concentration (MIC) (Staphylococcus aureus; strain LL #14): ≤ 0.06 µg/mL
- minimal inhibitory concentration (MIC) (Staphylococcus aureus; strain LL #27): ≤ 0.06 µg/mL
- minimal inhibitory concentration (MIC) (Staphylococcus aureus; strain LL #45): ≤ 0.06 µg/mL
- MIC (Klebsiella pneumoniae): 512 µg/mL (≈ 956 µM)
- MIC (Streptococcus mutans; ATCC27352, strain ATCC 27352, Mueller-Hinton agar): ≤ 0.06 µg/mL
- MIC (Streptococcus mutans; strain BHI (b), Mueller-Hinton agar): ≤ 0.06 µg/mL
- MIC (Proteus morganii): 512 µg/mL (≈ 956 µM)
- MIC (Bacillus cereus): ≤ 0.06 µg/mL
- MIC (Streptococcus sanguis): ≤ 0.06 µg/mL
- MIC (Escherichia coli; ATCC25922, strain ATCC 25922, Mueller-Hinton agar): 512 µg/mL (≈ 956 µM)
- MIC (Escherichia coli; strain #311, Mueller-Hinton agar): 512 µg/mL (≈ 956 µM)
- MIC ([1]; Streptococcus, strain OSU-75-1, read-out: minimal inhibitory concentration (MIC)): ≤ 0.06 µg/mL
- minimal inhibitory concentration (MIC) ([1]; strain SM-77-15): ≤ 0.06 µg/mL
- MIC [2]: 512 µg/mL (≈ 956 µM)
- MIC ([3]; ATCC12228, strain ATCC 12228, Mueller-Hinton agar): ≤ 0.06 µg/mL
- MIC ([3]; strain CMC-83-56, Mueller-Hinton agar): ≤ 0.06 µg/mL
- MIC (Saccharomyces cerevisiae): 32 µg/mL (≈ 59.8 µM)
- MIC (Bacillus subtilis): ≤ 0.06 µg/mL
- MIC (Candida albicans): 256 µg/mL (≈ 478 µM)
- MIC (Micrococcus luteus): ≤ 0.06 µg/mL
